Legend:
[1] = Precipitation of TDF particulates with stabiliser combinations (Example 5); format: physicochemical; conditions: Stabiliser B combined with Stabiliser A AOT, procedure of Example 2
Description: 800 μL of the stabiliser-containing dichloromethane solution was pipetted into a 4 mL volume glass vial. 200 μL of TDF-containing methanol solution was rapidly pipetted into the same vial, which was then sealed and briefly shaken. A white, hazy suspension formed instantaneously. […] The TDF loading of the particulates was altered by changing the concentration of the methanol and dichloromethane solutions prior to mixing. It should be noted that this approach allows for different volumes of the TDF particulate suspensions to be produced simply by increasing the volumes added, so long as the 4:1 ratio of dichloromethane to methanol is maintained, this allows for fine control of the concentration of the TDF particles dispersed in the oil of the liquid composition.
Following the procedure described in Example 2, the following combinations of stabilisers were used to form TDF particulates (see table 7 below).

[2] = Solubility of TDF in solvents and of TDF particulates in oils; format: physicochemical
From the text: Therefore methanol was used for the first solvent. TDF is not soluble in dichloromethane, which was used as the second solvent.
A selection of biocompatible natural oils were used to form liquid compositions. These oils were selected as the TDF particulates were insoluble in them and the oils could be dissolved into the mixed solvent system. The oils used were peanut oil, soy bean oil, sesame oil and safflower oil.

| Molecule | Successful Precipitation [1] | solubility in dichloromethane ([2]; dichloromethane) | solubility ([2]; methanol, organic solvent or mixture) [mg/mL] |
| --- | --- | --- | --- |
| CCCCCCCC/C=C\CCCCCCCC(=O)OCC(O)CO (stereo not drawn) [Pecol ™, glycerol mono-oleate] | Yes | – | – |
| polyoxyethylene (2) stearyl ether [Brij ™ S2] | Yes | – | – |
| propylene glycol monolaurate (type II) [Lauroglycol ™ 90] | Yes | – | – |
| propylene glycol monolaurate (type I) [Lauroglycol ™ FCC] | Yes | – | – |
| propylene glycol monocaprylate (type II) [Capryol ™ 90] | Yes | – | – |
| propylene glycol monocaprylate (type I) [Capryol ™ PGMC] | Yes | – | – |

Continued, values first:

| Successful Precipitation [1] | solubility in dichloromethane ([2]; dichloromethane) | solubility ([2]; methanol, organic solvent or mixture) [mg/mL] | Molecule |
| --- | --- | --- | --- |
| Yes | – | – | CCCCC/C=C\C/C=C\CCCCCCCC(=O)OCC(O)CO (stereo not drawn) [Maisine ™ 35-1, glyceryl monolinoleate] |
| Yes | – | – | propylene glycol monopalmitostearate [Monosteol ™] |
| Yes | – | – | polyoxyethylenesorbitan monopalmitate [Tween ™ 40] |
| Yes | – | – | sorbitan oleate [Span ™ 80] |
| – | not soluble | ≤ 80 | CC(C)OC(=O)OCOP(=O)(CO[C@H](C)Cn1cnc2c(N)ncnc21)OCOC(=O)OC(C)C.O=C(O)/C=C/C(=O)O [TDF, tenofovir disoproxil fumerate] |
| Yes | – | – | polyglyceryl-6 dioleate [Plurol ™ Olique] |
| Yes | – | – | polyglyceryl-3 diisostearate [Plurol ™ diisosteraque] |
| Yes | – | – | polyethylene glycol sorbitan monooleate [Tween ™ 80] |
